Test results from patent publication US20020137929A1, “1 - (3-heterocyclylphenyl) isothiourea, -isourea, -guanidine and -amidine herbicidal agents” (Intellectual Property Department, BASF Aktiengesellschaft, priority 1998, published 2002).

What was measured:
ABUTH (Velvetleaf) = assay: Postemergence herbicidal evaluation; type: in vivo, Abutilon theophrasti; conditions: postemergence
How it was run: (§1)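 Rate range approx. 0.0156–0.500 kg/ha. Foliar application at 40 psi to ~2-week seedlings; surfactant 0.5% TWEEN 20 in 50/50 acetone/water. Evaluation 4–5 wk post-treatment by 0–9 visual injury score, means of replicate tests.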

GALAP (Galium) = assay: Postemergence herbicidal evaluation; type: in vivo, Galium aparine; conditions: postemergence
How it was run: as §1

ECHCG (Barnyardgrass) = assay: Postemergence herbicidal evaluation; type: in vivo, Echinochloa crus-galli; conditions: postemergence
How it was run: as §1

SETVI (Foxtail, Green) = assay: Postemergence herbicidal evaluation; type: in vivo, Setaria viridis; conditions: postemergence
How it was run: as §1

ORYSAT (Rice, Tebonnet) = assay: Postemergence herbicidal evaluation; type: in vivo, Oryza sativa, (L.) Tebonnet; conditions: postemergence
How it was run: as §1

[1] = system: IPOHE (Morningglory, Ivyleaf); assay: Preemergence herbicidal evaluation; type: in vivo, Ipomoea hederacea; conditions: rated 4-5 weeks after treatment
How it was run: (§2)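 Scores (0–9) reflect visual comparison with control plants for stand, vigor, malformation, size and chlorosis. Compound was applied to the soil after sowing, before emergence, as an aqueous acetone spray (about 0.0156–0.500 kg/ha), and cups were kept in a greenhouse for 4–5 weeks.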

[2] = system: TRZAWR (Wheat, Winter, cv Riband); assay: Preemergence herbicidal evaluation; type: in vivo, Triticum aestivum; conditions: rated 4-5 weeks after treatment
How it was run: as §2

ZEAMX (Corn, Field) = assay: Preemergence herbicidal evaluation; type: in vivo, Zea mays; conditions: rated 4-5 weeks after treatment
How it was run: as §2

[3] = system: ECHORC (Watergrass (Calif.)); assay: Preemergence weed control under flooded paddy conditions; type: in vivo, Echinochloa oryzoides; conditions: rated 3-4 weeks after treatment
How it was run: (§3)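 Seeds or propagules sown in silt loam kept flooded 1.5-3 cm; compounds in 50/50 acetone/water pipetted into flood water at about 0.0313 to 0.500 kg/ha. Greenhouse; visual 0-9 rating versus untreated control 3-4 weeks after treatment.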

CYPIR (Rice Flatsedge) [4] = assay: as above; type: in vivo, Cyperus iria; conditions: rated 3-4 weeks after treatment
How it was run: as §3

CYPIR (Rice Flatsedge) [5] = assay: Postemergence weed control under flooded paddy conditions; type: in vivo, Cyperus iria; conditions: postemergence weeds, rated 3 to 4 weeks after treatment
How it was run: (§4)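 Weeds 3 to 5 cm tall and rice seedlings at the 1.5 to 2.5 leaf stage were flooded, with water held 1.5 to 3 cm above the soil. Compounds in 50/50 v/v aqueous/acetone went into the flood water at about 0.0313 to 0.500 kg/ha. Visual 0-9 ratings versus control were made 3 to 4 weeks later.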

CYPSE (Flatsedge) = assay: as above; type: in vivo, Cyperus serotinus; conditions: postemergence weeds, rated 3 to 4 weeks after treatment
How it was run: as §4

[6] = system: SAGPY (Arrowhead (Pygmaea)); assay: as above; type: in vivo, Sagittaria pygmaea; conditions: postemergence weeds, rated 3 to 4 weeks after treatment
How it was run: as §4

SMILES: Cn1c(C(F)(F)F)cc(=O)n(-c2cc(N=C3SCC(=O)N3C3CCOC3=O)c(Cl)cc2F)c1=O (stereo not drawn) [Compound 73]
- ABUTH herbicidal rating (ABUTH (Velvetleaf); rate 0.0158 kg/ha): 9.0
- ABUTH herbicidal rating (ABUTH (Velvetleaf); rate 0.0315 kg/ha): 9.0
- ABUTH herbicidal rating (ABUTH (Velvetleaf); rate 0.0630 kg/ha): 9.0
- GALAP herbicidal rating (GALAP (Galium); rate 0.0158 kg/ha): 3.0
- GALAP herbicidal rating (GALAP (Galium); rate 0.0315 kg/ha): 7.0
- GALAP herbicidal rating (GALAP (Galium); rate 0.0630 kg/ha): 6.0
- ECHCG herbicidal rating (ECHCG (Barnyardgrass); rate 0.0158 kg/ha): 2.0
- ECHCG herbicidal rating (ECHCG (Barnyardgrass); rate 0.0315 kg/ha): 2.0
- ECHCG herbicidal rating (ECHCG (Barnyardgrass); rate 0.0630 kg/ha): 3.0
- SETVI herbicidal rating (SETVI (Foxtail, Green); rate 0.0158 kg/ha): 1.0
- SETVI herbicidal rating (SETVI (Foxtail, Green); rate 0.0315 kg/ha): 2.0
- SETVI herbicidal rating (SETVI (Foxtail, Green); rate 0.0630 kg/ha): 7.0
- ORYSAT herbicidal rating (ORYSAT (Rice, Tebonnet); rate 0.0158 kg/ha): 2.5
- ORYSAT herbicidal rating (ORYSAT (Rice, Tebonnet); rate 0.0315 kg/ha): 3.0
- ORYSAT herbicidal rating (ORYSAT (Rice, Tebonnet); rate 0.0630 kg/ha): 4.0
- Preemergence herbicidal rating IPOHE ([1]; rate 0.0156 kg/ha): 0.0
- Preemergence herbicidal rating IPOHE ([1]; rate 0.0313 kg/ha): 1.0
- Preemergence herbicidal rating IPOHE ([1]; rate 0.0625 kg/ha): 0.0
- Preemergence herbicidal rating IPOHE ([1]; rate 0.1250 kg/ha): 1.0
- Preemergence herbicidal rating IPOHE ([1]; rate 0.2500 kg/ha): 7.0
- Preemergence herbicidal rating TRZAWR ([2]; rate 0.0156 kg/ha): 0.0
- Preemergence herbicidal rating TRZAWR ([2]; rate 0.0313 kg/ha): 0.0
- Preemergence herbicidal rating TRZAWR ([2]; rate 0.0625 kg/ha): 1.0
- Preemergence herbicidal rating TRZAWR ([2]; rate 0.1250 kg/ha): 3.0
- Preemergence herbicidal rating TRZAWR ([2]; rate 0.2500 kg/ha): 4.0
- Preemergence herbicidal rating ZEAMX (ZEAMX (Corn, Field); rate 0.0156 kg/ha): 0.0
- Preemergence herbicidal rating ZEAMX (ZEAMX (Corn, Field); rate 0.0313 kg/ha): 0.0
- Preemergence herbicidal rating ZEAMX (ZEAMX (Corn, Field); rate 0.0625 kg/ha): 1.0
- Preemergence herbicidal rating ZEAMX (ZEAMX (Corn, Field); rate 0.1250 kg/ha): 4.0
- Preemergence herbicidal rating ZEAMX (ZEAMX (Corn, Field); rate 0.2500 kg/ha): 7.0
- ECHORC herbicidal effect rating ([3]; 0.1250 kg/ha): 3.0
- ECHORC herbicidal effect rating ([3]; 0.2500 kg/ha): 7.0
- CYPIR herbicidal effect rating (CYPIR (Rice Flatsedge) [4]; 0.1250 kg/ha): 0.0
- CYPIR herbicidal effect rating (CYPIR (Rice Flatsedge) [4]; 0.2500 kg/ha): 6.0
- Herbicidal rating CYPIR (CYPIR (Rice Flatsedge) [5]; Rate 0.1250 kg/ha): 0.0
- Herbicidal rating CYPIR (CYPIR (Rice Flatsedge) [5]; Rate 0.2500 kg/ha): 6.0
- Herbicidal rating CYPSE (CYPSE (Flatsedge); Rate 0.1250 kg/ha): 2.0
- Herbicidal rating CYPSE (CYPSE (Flatsedge); Rate 0.2500 kg/ha): 4.0
- Herbicidal rating SAGPY ([6]; Rate 0.1250 kg/ha): 3.0
- Herbicidal rating SAGPY ([6]; Rate 0.2500 kg/ha): 4.0

SMILES: COC(=O)[C@H](Cc1ccc([N+](=O)[O-])cc1)N1C(=O)CSC1=Nc1cc(-n2c(=O)cc(C(F)(F)F)n(C)c2=O)c(F)cc1Cl [Compound 78, Methyl 2-{{2-chloro-5-[3,6-dihydro-3-methyl-2,6-dioxo-4-(trifluoromethyl)-1(2H)-pyrimidinyl]-4-fluorophenyl}imino}-4-oxo-α-(p-nitrobenzyl)-3-thiazolidineacetate, L-]
- ABUTH herbicidal rating (ABUTH (Velvetleaf); rate 0.0158 kg/ha): 7.0
- ABUTH herbicidal rating (ABUTH (Velvetleaf); rate 0.0315 kg/ha): 9.0
- ABUTH herbicidal rating (ABUTH (Velvetleaf); rate 0.0630 kg/ha): 9.0
- GALAP herbicidal rating (GALAP (Galium); rate 0.0158 kg/ha): 1.0
- GALAP herbicidal rating (GALAP (Galium); rate 0.0315 kg/ha): 1.0
- GALAP herbicidal rating (GALAP (Galium); rate 0.0630 kg/ha): 2.0
- ECHCG herbicidal rating (ECHCG (Barnyardgrass); rate 0.0158 kg/ha): 1.0
- ECHCG herbicidal rating (ECHCG (Barnyardgrass); rate 0.0315 kg/ha): 1.0
- ECHCG herbicidal rating (ECHCG (Barnyardgrass); rate 0.0630 kg/ha): 1.0
- SETVI herbicidal rating (SETVI (Foxtail, Green); rate 0.0158 kg/ha): 1.0
- SETVI herbicidal rating (SETVI (Foxtail, Green); rate 0.0315 kg/ha): 1.0
- SETVI herbicidal rating (SETVI (Foxtail, Green); rate 0.0630 kg/ha): 1.0
- ORYSAT herbicidal rating (ORYSAT (Rice, Tebonnet); rate 0.0158 kg/ha): 3.0
- ORYSAT herbicidal rating (ORYSAT (Rice, Tebonnet); rate 0.0315 kg/ha): 3.5
- ORYSAT herbicidal rating (ORYSAT (Rice, Tebonnet); rate 0.0630 kg/ha): 4.0
- Preemergence herbicidal rating IPOHE ([1]; rate 0.0156 kg/ha): 0.0
- Preemergence herbicidal rating IPOHE ([1]; rate 0.0313 kg/ha): 0.0
- Preemergence herbicidal rating IPOHE ([1]; rate 0.0625 kg/ha): 0.0
- Preemergence herbicidal rating IPOHE ([1]; rate 0.1250 kg/ha): 0.0
- Preemergence herbicidal rating IPOHE ([1]; rate 0.2500 kg/ha): 3.0
- Preemergence herbicidal rating TRZAWR ([2]; rate 0.0156 kg/ha): 0.0
- Preemergence herbicidal rating TRZAWR ([2]; rate 0.0313 kg/ha): 0.0
- Preemergence herbicidal rating TRZAWR ([2]; rate 0.0625 kg/ha): 0.0
- Preemergence herbicidal rating TRZAWR ([2]; rate 0.1250 kg/ha): 0.0
- Preemergence herbicidal rating TRZAWR ([2]; rate 0.2500 kg/ha): 0.0
- Preemergence herbicidal rating ZEAMX (ZEAMX (Corn, Field); rate 0.0156 kg/ha): 0.0
- Preemergence herbicidal rating ZEAMX (ZEAMX (Corn, Field); rate 0.0313 kg/ha): 0.0
- Preemergence herbicidal rating ZEAMX (ZEAMX (Corn, Field); rate 0.0625 kg/ha): 0.0
- Preemergence herbicidal rating ZEAMX (ZEAMX (Corn, Field); rate 0.1250 kg/ha): 0.0
- Preemergence herbicidal rating ZEAMX (ZEAMX (Corn, Field); rate 0.2500 kg/ha): 1.0
- ECHORC herbicidal effect rating ([3]; 0.0313 kg/ha): 7.0
- ECHORC herbicidal effect rating ([3]; 0.0625 kg/ha): 7.0
- ECHORC herbicidal effect rating ([3]; 0.1250 kg/ha): 9.0
- ECHORC herbicidal effect rating ([3]; 0.2500 kg/ha): 9.0
- CYPIR herbicidal effect rating (CYPIR (Rice Flatsedge) [4]; 0.0313 kg/ha): 5.0
- CYPIR herbicidal effect rating (CYPIR (Rice Flatsedge) [4]; 0.0625 kg/ha): 5.0
- CYPIR herbicidal effect rating (CYPIR (Rice Flatsedge) [4]; 0.1250 kg/ha): 6.0
- CYPIR herbicidal effect rating (CYPIR (Rice Flatsedge) [4]; 0.2500 kg/ha): 9.0
- Herbicidal rating CYPIR (CYPIR (Rice Flatsedge) [5]; Rate 0.0313 kg/ha): 5.0
- Herbicidal rating CYPIR (CYPIR (Rice Flatsedge) [5]; Rate 0.0625 kg/ha): 5.0
- Herbicidal rating CYPIR (CYPIR (Rice Flatsedge) [5]; Rate 0.1250 kg/ha): 6.0
- Herbicidal rating CYPIR (CYPIR (Rice Flatsedge) [5]; Rate 0.2500 kg/ha): 9.0
- Herbicidal rating CYPSE (CYPSE (Flatsedge); Rate 0.0313 kg/ha): 6.0
- Herbicidal rating CYPSE (CYPSE (Flatsedge); Rate 0.0625 kg/ha): 6.0
- Herbicidal rating CYPSE (CYPSE (Flatsedge); Rate 0.1250 kg/ha): 7.0
- Herbicidal rating CYPSE (CYPSE (Flatsedge); Rate 0.2500 kg/ha): 9.0
- Herbicidal rating SAGPY ([6]; Rate 0.0313 kg/ha): 0.0
- Herbicidal rating SAGPY ([6]; Rate 0.0625 kg/ha): 0.0
- Herbicidal rating SAGPY ([6]; Rate 0.1250 kg/ha): 2.0
- Herbicidal rating SAGPY ([6]; Rate 0.2500 kg/ha): 4.0
